Test results as given in ChEMBL document CHEMBL1201862, “PubChem BioAssay data set” (2004).
Calls of active or inactive are those of the source.

Experiments:
[1] = Luminescence Cell-Based Dose Response HTS to Identify Activators of Luciferase Translation or Activity in H4 […] Cells. [Related pubchem assays: 1829 (Project Summary), 1814 (Primary HTS)]; assay type: functional
[2] = test system: H4; assay: Luminescence Cell-Based Dose Response HTS to Identify Activators of 5'UTR Stem-Loop Driven Prion Protein mRNA Translation in H4 Neuroglioblastoma Cells. [Related pubchem assays: 1829 (Project Summary), 1814 (Primary HTS)]; assay type: functional; conditions: Homo sapiens
[3] = test system: Vero; assay: mammalian cell viability reduction – secondary assay, cytotoxicity control for West Nile virus antiviral project, dose response (AID 1650); assay type: functional; conditions: Chlorocebus sabaeus
[4] = Luminescence Cell-Based Dose Retest to Confirm Inhibitors of Cancer Stem Cells. [Related pubchem assays (depositor defined):AID2717, AID2721]; assay type: functional; conditions: Homo sapiens
[5] = target: T1, Replicative DNA helicase DnaB (Mycobacterium tuberculosis, UniProt P9WMR3); assay: DnaB intein splicing inhibitors, dose response, biochemical, cell-free fluorescence (AID 449749); assay type: functional
T1 sequence (P9WMR3 whole entry): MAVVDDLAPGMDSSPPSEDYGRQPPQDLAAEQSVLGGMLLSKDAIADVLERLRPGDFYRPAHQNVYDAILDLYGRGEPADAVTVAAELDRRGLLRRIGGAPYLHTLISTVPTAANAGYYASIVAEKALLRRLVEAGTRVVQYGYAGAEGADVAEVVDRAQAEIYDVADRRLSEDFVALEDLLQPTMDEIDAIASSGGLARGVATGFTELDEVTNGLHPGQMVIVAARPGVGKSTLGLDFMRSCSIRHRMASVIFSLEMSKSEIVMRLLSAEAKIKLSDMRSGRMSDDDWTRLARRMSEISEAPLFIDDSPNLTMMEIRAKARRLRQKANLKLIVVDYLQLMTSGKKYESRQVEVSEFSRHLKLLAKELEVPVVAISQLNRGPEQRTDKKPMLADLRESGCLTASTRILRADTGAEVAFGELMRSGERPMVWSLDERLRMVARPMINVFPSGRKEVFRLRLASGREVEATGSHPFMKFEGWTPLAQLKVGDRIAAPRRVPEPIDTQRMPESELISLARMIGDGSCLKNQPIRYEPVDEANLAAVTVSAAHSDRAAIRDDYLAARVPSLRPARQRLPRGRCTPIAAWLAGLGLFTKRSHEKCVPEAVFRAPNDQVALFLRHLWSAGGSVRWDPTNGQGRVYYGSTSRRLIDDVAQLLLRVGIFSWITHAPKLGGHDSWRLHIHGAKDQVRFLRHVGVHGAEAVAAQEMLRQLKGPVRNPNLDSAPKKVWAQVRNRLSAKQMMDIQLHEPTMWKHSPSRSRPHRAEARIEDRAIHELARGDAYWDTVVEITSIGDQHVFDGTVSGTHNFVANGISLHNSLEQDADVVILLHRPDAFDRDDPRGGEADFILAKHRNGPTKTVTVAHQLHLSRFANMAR

[6] = test system: Vero; assay: cells; assay type: functional, cell-based; conditions: Chlorocebus sabaeus
[7] = target: T2, Protein RecA (Mycobacterium tuberculosis, UniProt P9WHJ3); assay: Fluorescence Cell-Free Homogeneous Dose Retest to Identify Inhibitors of RecA-Intein Splicing Activity. [Related pubchem assays (depositor defined):AID2097, AID2223, AID489010, AID492950]; assay type: functional
T2 sequence (P9WHJ3 whole entry): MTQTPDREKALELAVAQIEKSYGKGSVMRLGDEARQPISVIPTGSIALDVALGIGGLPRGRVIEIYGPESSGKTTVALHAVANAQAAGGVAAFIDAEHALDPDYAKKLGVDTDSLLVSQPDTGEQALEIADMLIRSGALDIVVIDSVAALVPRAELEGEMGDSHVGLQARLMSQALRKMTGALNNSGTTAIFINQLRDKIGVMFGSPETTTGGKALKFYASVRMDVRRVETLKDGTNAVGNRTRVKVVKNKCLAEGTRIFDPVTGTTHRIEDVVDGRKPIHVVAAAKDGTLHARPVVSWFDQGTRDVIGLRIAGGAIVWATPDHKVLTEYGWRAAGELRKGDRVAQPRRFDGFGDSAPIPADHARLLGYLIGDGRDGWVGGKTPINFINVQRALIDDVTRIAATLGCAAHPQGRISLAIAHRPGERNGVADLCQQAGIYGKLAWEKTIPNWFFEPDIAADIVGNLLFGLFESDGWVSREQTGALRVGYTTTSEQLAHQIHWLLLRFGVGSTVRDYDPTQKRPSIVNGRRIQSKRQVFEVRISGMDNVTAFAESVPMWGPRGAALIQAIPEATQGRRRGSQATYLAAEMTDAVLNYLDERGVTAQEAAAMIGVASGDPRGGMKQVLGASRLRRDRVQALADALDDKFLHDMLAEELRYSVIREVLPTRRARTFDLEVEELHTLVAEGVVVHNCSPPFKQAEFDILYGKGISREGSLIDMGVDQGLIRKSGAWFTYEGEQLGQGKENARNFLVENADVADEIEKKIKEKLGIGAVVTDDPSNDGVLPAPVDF

[8] = test system: INS1; assay: INS-1E survival protection against cytokine death – cell-based, luminescence, retest, dose response (AID 449756); assay type: functional; conditions: Rattus norvegicus;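 note: cell death triggered by IL-1 beta plus TNF-alpha plus IFN-gamma mixture; protective hits raise ATP signal compared with cytokine alone wells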
[9] = test system: Vero; assay: cells; assay type: functional; conditions: Chlorocebus sabaeus
[10] = A Cell-Based Counter Screen testing Compounds that Inhibit VEEV TC-83, in strain KU V3526.; assay type: functional
[11] = A Cell-Based Confirmatory Screen for Compounds that Inhibit VEEV, TC-83 (2).; assay type: functional
[12] = target: T3, Caspase-3 (Homo sapiens, UniProt P42574); assay type: functional
T3 sequence (P42574 whole entry): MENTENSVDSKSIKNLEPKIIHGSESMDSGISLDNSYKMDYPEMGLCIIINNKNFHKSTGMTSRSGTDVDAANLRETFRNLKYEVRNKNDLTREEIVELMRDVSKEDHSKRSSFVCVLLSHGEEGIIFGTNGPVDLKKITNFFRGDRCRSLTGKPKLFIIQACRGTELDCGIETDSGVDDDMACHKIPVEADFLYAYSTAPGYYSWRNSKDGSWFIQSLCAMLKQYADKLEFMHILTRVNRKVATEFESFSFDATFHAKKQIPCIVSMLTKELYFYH

[13] = target: T4, Sentrin-specific protease 7 (Homo sapiens, UniProt Q9BQF6); assay type: functional;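 note: Luminescence-based dose-response confirmation of ultra-high-throughput screening hits, measuring inhibition of SENP7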
T4 sequence (Q9BQF6 whole entry): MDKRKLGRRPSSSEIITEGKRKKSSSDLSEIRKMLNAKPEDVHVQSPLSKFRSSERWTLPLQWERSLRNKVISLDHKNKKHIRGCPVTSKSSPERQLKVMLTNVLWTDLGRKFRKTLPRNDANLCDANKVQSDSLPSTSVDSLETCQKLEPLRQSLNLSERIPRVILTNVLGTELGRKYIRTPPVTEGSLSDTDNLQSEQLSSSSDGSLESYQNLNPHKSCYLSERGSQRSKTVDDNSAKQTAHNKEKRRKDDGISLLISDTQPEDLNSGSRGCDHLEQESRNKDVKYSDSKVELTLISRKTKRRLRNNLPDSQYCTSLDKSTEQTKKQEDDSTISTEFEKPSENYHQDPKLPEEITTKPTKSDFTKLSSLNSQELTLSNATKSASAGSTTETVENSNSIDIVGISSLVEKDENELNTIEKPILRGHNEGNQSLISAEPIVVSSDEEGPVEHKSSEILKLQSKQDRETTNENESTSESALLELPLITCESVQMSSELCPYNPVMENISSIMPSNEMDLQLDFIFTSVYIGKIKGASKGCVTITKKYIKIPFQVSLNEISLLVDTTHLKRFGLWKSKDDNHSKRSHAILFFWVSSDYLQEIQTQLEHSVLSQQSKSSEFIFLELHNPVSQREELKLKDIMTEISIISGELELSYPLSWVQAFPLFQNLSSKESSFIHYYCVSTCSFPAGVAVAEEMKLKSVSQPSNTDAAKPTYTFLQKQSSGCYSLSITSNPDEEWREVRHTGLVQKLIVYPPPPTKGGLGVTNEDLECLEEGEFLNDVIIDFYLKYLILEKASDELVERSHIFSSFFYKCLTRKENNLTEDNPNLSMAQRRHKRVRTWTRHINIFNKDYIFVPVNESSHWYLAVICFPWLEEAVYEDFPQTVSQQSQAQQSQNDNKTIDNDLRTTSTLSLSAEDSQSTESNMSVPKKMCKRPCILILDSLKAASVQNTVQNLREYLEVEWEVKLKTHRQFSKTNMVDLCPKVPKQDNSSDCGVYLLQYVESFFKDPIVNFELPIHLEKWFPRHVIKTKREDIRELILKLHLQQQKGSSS

[14] = target: Nonstructural protein 1 (Influenza A virus, UniProt Q194T2); assay type: functional, Influenza A virus (A/California/07/2009(H1N1))
Chain of Nonstructural protein 1 (Q194T2 whole entry): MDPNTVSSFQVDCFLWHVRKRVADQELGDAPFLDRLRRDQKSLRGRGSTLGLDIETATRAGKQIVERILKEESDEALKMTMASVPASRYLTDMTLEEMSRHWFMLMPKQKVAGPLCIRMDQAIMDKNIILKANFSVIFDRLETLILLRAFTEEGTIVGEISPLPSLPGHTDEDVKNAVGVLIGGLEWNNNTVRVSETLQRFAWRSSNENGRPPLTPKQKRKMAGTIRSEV

[15] = target: T5, Sentrin-specific protease 6 (Homo sapiens, UniProt Q9GZR1); assay type: functional
T5 sequence (Q9GZR1 whole entry): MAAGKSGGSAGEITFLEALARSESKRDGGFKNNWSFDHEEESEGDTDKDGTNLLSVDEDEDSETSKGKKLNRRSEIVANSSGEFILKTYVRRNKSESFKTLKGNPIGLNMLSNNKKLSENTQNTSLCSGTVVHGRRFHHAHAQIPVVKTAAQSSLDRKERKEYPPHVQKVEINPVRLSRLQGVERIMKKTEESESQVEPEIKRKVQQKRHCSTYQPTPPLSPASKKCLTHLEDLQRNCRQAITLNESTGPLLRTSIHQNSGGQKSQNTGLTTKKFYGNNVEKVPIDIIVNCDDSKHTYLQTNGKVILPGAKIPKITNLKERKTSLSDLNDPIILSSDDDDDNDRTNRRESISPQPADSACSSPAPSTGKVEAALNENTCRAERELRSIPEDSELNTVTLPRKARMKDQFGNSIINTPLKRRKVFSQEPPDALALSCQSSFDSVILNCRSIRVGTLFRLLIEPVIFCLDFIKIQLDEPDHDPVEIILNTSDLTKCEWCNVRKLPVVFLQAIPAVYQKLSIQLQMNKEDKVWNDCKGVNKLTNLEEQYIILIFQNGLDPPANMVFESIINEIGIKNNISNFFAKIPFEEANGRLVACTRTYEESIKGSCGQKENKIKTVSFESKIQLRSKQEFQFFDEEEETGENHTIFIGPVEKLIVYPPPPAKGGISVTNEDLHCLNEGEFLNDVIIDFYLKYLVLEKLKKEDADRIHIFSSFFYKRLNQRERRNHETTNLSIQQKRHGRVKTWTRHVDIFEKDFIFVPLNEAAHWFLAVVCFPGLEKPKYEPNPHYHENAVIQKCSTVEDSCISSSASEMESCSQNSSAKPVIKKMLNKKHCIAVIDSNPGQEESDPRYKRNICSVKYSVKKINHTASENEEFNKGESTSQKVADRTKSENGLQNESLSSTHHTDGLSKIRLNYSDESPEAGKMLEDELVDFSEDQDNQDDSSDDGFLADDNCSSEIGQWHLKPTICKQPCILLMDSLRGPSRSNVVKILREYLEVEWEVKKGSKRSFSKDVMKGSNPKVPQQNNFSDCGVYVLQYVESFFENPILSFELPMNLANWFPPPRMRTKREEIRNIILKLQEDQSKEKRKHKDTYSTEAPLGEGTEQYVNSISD

[16] = target: T6, Sentrin-specific protease 8 (Homo sapiens, UniProt Q96LD8); assay type: functional;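 note: luminescence read-out of SENP8 inhibition, dose-response confirmation following an ultra-high-throughput screen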
T6 sequence (Q96LD8 whole entry): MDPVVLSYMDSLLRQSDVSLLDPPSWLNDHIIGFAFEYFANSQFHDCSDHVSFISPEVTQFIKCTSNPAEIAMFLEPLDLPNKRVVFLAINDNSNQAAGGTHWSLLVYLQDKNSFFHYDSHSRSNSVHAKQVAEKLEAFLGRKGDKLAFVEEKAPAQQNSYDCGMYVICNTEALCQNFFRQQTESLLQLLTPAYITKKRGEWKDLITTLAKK

[17] = target: T6, Sentrin-specific protease 8; assay: inhibition of human SENP8 cleavage activity – biochemical, luminescence, SAR follow-up (AID 504501); assay type: functional
[18] = target: T3, Caspase-3; assay: SAR Analysis of small molecule inhibitors of Sentrin-specific proteases (SENPs) using a Caspase-3 Selectivity assay. [Related pubchem assays (depositor defined):AID2540, AID2599, AID434973, AID489001]; assay type: functional
[19] = target: T5, Sentrin-specific protease 6; assay: SAR Analysis of small molecule inhibitors of Sentrin-specific protease 6 (SENP6) using a Luminescent assay. [Related pubchem assays (depositor defined):AID2582, AID2599]; assay type: functional
[20] = target: T4, Sentrin-specific protease 7; assay: inhibition of human SENP7 cleavage activity – biochemical, luminescence, SAR follow-up (AID 504497); assay type: functional
[21] = target: Oxysterols receptor LXR-beta (Homo sapiens, UniProt P55055); assay type: functional, cell-based;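 note: Cell-based luminescence dose-response assay of agonist activity at LXR, run as a confirmatory counterscreen to a daf-12 agonist screen; HEK293 cells with Gal4-LXR fusion and GAL4-driven luciferase reporter; agonist potency from rising luciferase signal of a Gal4-LXR reporter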
Chain of Oxysterols receptor LXR-beta (P55055 whole entry, the tested form may be a part): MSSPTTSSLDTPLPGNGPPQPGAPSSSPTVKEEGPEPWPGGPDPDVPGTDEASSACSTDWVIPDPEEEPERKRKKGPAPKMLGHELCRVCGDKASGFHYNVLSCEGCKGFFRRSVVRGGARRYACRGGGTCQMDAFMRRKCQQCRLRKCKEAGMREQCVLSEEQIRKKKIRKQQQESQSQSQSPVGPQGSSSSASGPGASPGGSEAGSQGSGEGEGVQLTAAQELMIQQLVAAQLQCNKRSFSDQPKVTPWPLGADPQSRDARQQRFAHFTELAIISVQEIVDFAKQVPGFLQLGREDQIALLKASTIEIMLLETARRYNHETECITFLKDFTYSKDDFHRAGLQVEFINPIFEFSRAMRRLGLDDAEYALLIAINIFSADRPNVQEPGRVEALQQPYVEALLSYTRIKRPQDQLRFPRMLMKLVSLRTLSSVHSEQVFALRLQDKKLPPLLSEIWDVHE

[22] = target: Cytochrome P450 2D6 (Homo sapiens, UniProt P10635);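 note: CYP2D6 member of a cytochrome P450 panel assay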
Chain of Cytochrome P450 2D6 (P10635 whole entry): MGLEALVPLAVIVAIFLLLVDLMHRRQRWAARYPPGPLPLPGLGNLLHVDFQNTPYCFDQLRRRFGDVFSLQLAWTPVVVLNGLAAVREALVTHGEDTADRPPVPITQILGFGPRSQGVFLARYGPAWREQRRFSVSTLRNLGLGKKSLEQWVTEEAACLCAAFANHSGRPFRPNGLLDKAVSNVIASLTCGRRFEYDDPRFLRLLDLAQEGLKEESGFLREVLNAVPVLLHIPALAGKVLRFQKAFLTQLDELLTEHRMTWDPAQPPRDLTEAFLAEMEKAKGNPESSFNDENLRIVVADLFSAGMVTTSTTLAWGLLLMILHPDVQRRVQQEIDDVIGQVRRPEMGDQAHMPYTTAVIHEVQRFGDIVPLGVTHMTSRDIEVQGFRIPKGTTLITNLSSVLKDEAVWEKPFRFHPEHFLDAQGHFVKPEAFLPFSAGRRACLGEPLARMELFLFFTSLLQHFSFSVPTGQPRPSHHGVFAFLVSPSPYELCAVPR

[23] = cells

Clc1ccc2nnnc(-c3ccccc3)c2c1
EC50 [1]: 2.12 µM (active)
EC50 [2]: > 120 µM (not active)
CC50 [3]: 12.3 µM (active)
AC50 [4]: 3.08 µM (active)
AC50 [5]: 24.8 µM (active)
IC50 [6]: 9.71 µM (active)
EC50 [7]: 3.78 µM (active)
AC50 [8]: 7.81 µM (active)
CC50 [9]: > 25 µM (active)
IC50 [10]: 3.45 µM (active)
IC50 [11]: 6.12 µM (active)

O=[N+]([O-])c1ccccc1N/N=C/c1c[nH]c2ccccc12
IC50 [12]: 32.8 µM (active)
IC50 [13]: 3.36 µM (active)
IC50 [14]: 19 µM (active)
IC50 [15]: > 100 µM (inactive)
IC50 [16]: > 100 µM (inactive)
IC50 [17]: 6.32 µM (active)
IC50 [18]: 17.4 µM (active)
IC50 [19]: 5.73 µM (active)
IC50 [20]: 2.26 µM (active)
EC50 [21]: > 67.5 µM (inactive)
AC50 [22]: 20 µM (inconclusive)
EC50 [23]: > 67.5 µM (inactive)
